Columns and labels:
[1] = molecular target: AP2-associated protein kinase 1 (Homo sapiens) (UniProt Q2M2I8); details: Compound concentration 1000.0 nM
[2] = tested on: ALK tyrosine kinase receptor (Homo sapiens), Q9UM73 [C1156Y]; details: Compound concentration 1000.0 nM
[3] = molecular target: 5'-AMP-activated protein kinase catalytic subunit alpha-1 (Homo sapiens) (UniProt Q13131); details: Compound concentration 1000.0 nM
[4] = molecular target: Tyrosine-protein kinase Blk (Homo sapiens) (UniProt P51451); details: Compound concentration 1000.0 nM
[5] = molecular target: Calcium/calmodulin-dependent protein kinase type 1B (Homo sapiens) (UniProt Q6P2M8); details: Compound concentration 1000.0 nM
[6] = molecular target: Calcium/calmodulin-dependent protein kinase type II subunit beta (Homo sapiens) (UniProt Q13554); details: Compound concentration 1000.0 nM
[7] = molecular target: Cyclin-dependent kinase 5 (Homo sapiens) (UniProt Q00535); details: Compound concentration 1000.0 nM
Sequence of Cyclin-dependent kinase 5 (Homo sapiens) (Q00535 whole entry, looked up, canonical isoform): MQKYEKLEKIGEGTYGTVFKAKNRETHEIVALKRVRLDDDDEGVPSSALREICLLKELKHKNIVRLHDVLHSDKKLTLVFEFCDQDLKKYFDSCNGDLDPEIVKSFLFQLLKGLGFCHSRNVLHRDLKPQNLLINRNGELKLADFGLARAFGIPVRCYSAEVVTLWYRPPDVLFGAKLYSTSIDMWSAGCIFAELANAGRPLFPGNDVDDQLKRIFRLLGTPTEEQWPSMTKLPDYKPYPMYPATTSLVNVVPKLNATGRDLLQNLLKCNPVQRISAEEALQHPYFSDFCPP

[8] = molecular target: Casein kinase I isoform gamma-1 (Homo sapiens) (UniProt Q9HCP0); details: Compound concentration 1000.0 nM
[9] = molecular target: Serine/threonine-protein kinase DCLK3 (Homo sapiens) (UniProt Q9C098); details: Compound concentration 1000.0 nM
[10] = molecular target: Epithelial discoidin domain-containing receptor 1 (Homo sapiens) (UniProt Q08345); details: Compound concentration 1000.0 nM
[11] = molecular target: Ephrin type-A receptor 5 (Homo sapiens) (UniProt P54756); details: Compound concentration 1000.0 nM
[12] = molecular target: Mitogen-activated protein kinase 15 (Homo sapiens) (UniProt Q8TD08); details: Compound concentration 1000.0 nM
[13] = tested on: Receptor-type tyrosine-protein kinase FLT3 (Homo sapiens), P36888 [UNDEFINED MUTATION]; details: Compound concentration 1000.0 nM
[14] = molecular target: Tyrosine-protein kinase Fyn (Homo sapiens) (UniProt P06241); details: Compound concentration 1000.0 nM
Sequence of Tyrosine-protein kinase Fyn (Homo sapiens) (P06241 2-537 limits assumed): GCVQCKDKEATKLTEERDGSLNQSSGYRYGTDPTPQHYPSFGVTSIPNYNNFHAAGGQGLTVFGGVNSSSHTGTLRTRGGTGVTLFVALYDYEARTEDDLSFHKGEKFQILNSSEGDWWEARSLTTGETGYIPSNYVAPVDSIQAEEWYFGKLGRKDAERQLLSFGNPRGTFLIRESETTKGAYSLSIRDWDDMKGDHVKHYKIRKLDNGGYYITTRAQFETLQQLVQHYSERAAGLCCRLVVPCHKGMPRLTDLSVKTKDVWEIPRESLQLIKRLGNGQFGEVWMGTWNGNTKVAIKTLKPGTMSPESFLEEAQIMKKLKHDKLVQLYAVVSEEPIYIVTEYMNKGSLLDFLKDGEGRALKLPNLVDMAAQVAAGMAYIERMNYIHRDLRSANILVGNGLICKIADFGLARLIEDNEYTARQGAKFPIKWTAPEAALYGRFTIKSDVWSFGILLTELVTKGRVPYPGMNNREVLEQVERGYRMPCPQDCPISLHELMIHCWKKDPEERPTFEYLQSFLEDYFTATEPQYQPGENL

[15] = molecular target: Insulin-like growth factor 1 receptor (Homo sapiens) (UniProt P08069); details: Compound concentration 1000.0 nM
[16] = molecular target: Mitogen-activated protein kinase 9 (Homo sapiens) (UniProt P45984); details: Compound concentration 1000.0 nM
[17] = tested on: Mast/stem cell growth factor receptor Kit (Homo sapiens), P10721 [A829P]; details: Compound concentration 1000.0 nM
Sequence of Mast/stem cell growth factor receptor Kit (Homo sapiens), P10721 [A829P] (P10721 whole entry A829P): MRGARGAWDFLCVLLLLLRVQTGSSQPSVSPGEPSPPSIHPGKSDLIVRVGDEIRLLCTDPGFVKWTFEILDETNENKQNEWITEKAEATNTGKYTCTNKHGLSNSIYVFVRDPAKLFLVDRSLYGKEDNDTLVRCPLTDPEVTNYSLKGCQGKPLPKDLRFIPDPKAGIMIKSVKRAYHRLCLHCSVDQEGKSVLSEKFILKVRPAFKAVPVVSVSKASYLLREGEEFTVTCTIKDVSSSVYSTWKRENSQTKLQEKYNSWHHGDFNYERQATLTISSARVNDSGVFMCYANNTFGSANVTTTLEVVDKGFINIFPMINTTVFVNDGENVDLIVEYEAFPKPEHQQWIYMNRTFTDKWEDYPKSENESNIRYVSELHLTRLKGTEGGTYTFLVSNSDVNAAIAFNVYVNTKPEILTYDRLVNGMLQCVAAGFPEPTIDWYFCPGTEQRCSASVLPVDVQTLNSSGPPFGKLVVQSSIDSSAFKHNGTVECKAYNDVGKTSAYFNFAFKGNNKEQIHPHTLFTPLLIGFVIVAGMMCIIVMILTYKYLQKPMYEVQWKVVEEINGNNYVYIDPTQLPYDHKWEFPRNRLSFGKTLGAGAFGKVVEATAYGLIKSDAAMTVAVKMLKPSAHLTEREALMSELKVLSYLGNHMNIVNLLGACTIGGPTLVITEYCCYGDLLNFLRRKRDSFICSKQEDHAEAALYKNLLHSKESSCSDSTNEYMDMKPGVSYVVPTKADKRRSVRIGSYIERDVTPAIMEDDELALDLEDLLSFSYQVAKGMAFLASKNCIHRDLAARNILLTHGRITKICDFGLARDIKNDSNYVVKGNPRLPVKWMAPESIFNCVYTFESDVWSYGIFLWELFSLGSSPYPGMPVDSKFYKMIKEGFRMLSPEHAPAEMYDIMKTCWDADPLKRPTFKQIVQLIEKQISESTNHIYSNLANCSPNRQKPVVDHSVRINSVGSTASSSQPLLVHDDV

[18] = tested on: Mast/stem cell growth factor receptor Kit (Homo sapiens), P10721 [D816H]; details: Compound concentration 1000.0 nM
Sequence of Mast/stem cell growth factor receptor Kit (Homo sapiens), P10721 [D816H] (P10721 whole entry D816H): as the sequence (P10721 whole entry A829P) above, with D816H, P829A counted along it

[19] = molecular target: Serine/threonine-protein kinase STK11 (Homo sapiens) (UniProt Q15831); details: Compound concentration 1000.0 nM
Sequence of Serine/threonine-protein kinase STK11 (Homo sapiens) (Q15831 whole entry): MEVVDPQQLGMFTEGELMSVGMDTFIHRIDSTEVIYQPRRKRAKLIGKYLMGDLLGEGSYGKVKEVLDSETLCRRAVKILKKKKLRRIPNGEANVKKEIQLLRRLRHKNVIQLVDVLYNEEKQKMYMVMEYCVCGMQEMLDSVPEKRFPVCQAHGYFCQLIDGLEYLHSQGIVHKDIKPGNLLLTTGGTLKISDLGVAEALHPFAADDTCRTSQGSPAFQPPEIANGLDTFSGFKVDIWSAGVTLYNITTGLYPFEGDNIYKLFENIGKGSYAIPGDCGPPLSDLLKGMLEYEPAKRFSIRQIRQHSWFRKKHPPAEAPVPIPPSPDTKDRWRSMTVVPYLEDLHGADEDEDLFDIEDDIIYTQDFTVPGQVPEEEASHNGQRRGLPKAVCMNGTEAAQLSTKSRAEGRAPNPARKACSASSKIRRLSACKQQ

[20] = molecular target: Mitogen-activated protein kinase kinase kinase 3 (Homo sapiens) (UniProt Q99759); details: Compound concentration 1000.0 nM
[21] = molecular target: Hepatocyte growth factor receptor (Homo sapiens) (UniProt P08581); details: Compound concentration 1000.0 nM
Sequence of Hepatocyte growth factor receptor (Homo sapiens) (P08581 whole entry): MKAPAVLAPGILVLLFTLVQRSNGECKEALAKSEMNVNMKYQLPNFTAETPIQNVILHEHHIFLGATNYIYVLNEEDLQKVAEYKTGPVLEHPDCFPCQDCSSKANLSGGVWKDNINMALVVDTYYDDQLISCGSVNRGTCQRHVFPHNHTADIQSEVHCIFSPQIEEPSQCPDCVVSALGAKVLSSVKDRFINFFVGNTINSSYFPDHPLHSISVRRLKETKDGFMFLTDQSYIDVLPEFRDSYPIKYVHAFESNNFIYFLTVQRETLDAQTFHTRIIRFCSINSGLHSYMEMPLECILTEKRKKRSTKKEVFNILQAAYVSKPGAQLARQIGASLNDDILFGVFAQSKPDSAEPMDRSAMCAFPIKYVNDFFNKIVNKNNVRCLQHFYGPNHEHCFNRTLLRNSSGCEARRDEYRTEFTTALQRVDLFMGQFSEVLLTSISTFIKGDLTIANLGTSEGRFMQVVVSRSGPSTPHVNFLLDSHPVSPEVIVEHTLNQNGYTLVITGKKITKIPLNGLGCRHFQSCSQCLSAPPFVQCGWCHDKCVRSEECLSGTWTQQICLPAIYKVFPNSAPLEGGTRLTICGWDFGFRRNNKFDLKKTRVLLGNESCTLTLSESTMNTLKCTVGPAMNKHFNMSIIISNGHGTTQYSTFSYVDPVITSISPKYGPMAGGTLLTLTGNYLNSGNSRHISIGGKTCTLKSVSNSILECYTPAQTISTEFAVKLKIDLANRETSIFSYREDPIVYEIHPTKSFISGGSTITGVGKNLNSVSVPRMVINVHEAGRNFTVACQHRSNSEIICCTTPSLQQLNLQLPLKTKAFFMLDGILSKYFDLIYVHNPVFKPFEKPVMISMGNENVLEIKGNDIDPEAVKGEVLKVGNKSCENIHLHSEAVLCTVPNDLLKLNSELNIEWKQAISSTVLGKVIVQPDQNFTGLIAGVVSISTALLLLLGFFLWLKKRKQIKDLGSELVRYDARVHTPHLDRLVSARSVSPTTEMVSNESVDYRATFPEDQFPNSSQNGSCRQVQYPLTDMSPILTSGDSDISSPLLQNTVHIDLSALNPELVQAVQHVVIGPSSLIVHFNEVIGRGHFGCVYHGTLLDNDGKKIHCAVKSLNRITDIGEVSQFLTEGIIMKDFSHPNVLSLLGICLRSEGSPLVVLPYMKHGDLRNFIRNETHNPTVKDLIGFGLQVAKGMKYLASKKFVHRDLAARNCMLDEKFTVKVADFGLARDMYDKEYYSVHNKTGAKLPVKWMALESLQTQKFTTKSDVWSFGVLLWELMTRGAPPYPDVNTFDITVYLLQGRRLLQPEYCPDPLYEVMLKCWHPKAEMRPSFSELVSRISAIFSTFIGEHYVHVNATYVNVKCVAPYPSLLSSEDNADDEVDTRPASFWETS

[22] = molecular target: Serine/threonine-protein kinase MRCK alpha (Homo sapiens) (UniProt Q5VT25); details: Compound concentration 1000.0 nM
[23] = molecular target: Serine/threonine-protein kinase 38 (Homo sapiens) (UniProt Q15208); details: Compound concentration 1000.0 nM
[24] = molecular target: Serine/threonine-protein kinase Nek2 (Homo sapiens) (UniProt P51955); details: Compound concentration 1000.0 nM
[25] = molecular target: Serine/threonine-protein kinase Nek9 (Homo sapiens) (UniProt Q8TD19); details: Compound concentration 1000.0 nM
[26] = molecular target: Mitogen-activated protein kinase kinase kinase 14 (Homo sapiens) (UniProt Q99558); details: Compound concentration 1000.0 nM
[27] = molecular target: 3-phosphoinositide-dependent protein kinase 1 (Homo sapiens) (UniProt O15530); details: Compound concentration 1000.0 nM
[28] = molecular target: Phosphatidylinositol 4-kinase beta (Homo sapiens) (UniProt Q9UBF8); details: Compound concentration 1000.0 nM
[29] = molecular target: Serine/threonine-protein kinase D3 (Homo sapiens) (UniProt O94806); details: Compound concentration 1000.0 nM
[30] = molecular target: cGMP-dependent protein kinase 2 (Homo sapiens) (UniProt Q13237); details: Compound concentration 1000.0 nM
[31] = molecular target: Serine/threonine-protein kinase SBK1 (Homo sapiens) (UniProt Q52WX2); details: Compound concentration 1000.0 nM
Sequence of Serine/threonine-protein kinase SBK1 (Homo sapiens) (Q52WX2 whole entry): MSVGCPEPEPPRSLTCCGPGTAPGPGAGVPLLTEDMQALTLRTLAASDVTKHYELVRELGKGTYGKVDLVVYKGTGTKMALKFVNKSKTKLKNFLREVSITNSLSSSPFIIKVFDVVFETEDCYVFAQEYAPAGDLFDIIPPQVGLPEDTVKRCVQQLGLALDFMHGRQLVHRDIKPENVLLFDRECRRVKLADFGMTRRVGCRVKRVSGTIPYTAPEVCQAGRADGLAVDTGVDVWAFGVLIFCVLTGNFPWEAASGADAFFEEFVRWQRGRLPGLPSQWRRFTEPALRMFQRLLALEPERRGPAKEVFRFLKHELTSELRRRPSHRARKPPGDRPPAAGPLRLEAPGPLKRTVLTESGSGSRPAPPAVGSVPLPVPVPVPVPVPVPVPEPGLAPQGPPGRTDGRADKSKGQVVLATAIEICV

[32] = molecular target: Serine/threonine-protein kinase Sgk1 (Homo sapiens) (UniProt O00141); details: Compound concentration 1000.0 nM
[33] = molecular target: Serine/threonine-protein kinase Sgk2 (Homo sapiens) (UniProt Q9HBY8); details: Compound concentration 1000.0 nM
[34] = molecular target: Serine/threonine-protein kinase tousled-like 2 (Homo sapiens) (UniProt Q86UE8); details: Compound concentration 1000.0 nM
[35] = molecular target: Serine/threonine-protein kinase TNNI3K (Homo sapiens) (UniProt Q59H18); details: Compound concentration 1000.0 nM
[36] = molecular target: Serine/threonine-protein kinase 32A (Homo sapiens) (UniProt Q8WU08); details: Compound concentration 1000.0 nM
[37] = molecular target: Alpha-2B adrenergic receptor (Homo sapiens) (UniProt P18089); details: Compound concentration 10.0 uM

Sequence of AP2-associated protein kinase 1 (Homo sapiens) (Q2M2I8 whole entry, looked up): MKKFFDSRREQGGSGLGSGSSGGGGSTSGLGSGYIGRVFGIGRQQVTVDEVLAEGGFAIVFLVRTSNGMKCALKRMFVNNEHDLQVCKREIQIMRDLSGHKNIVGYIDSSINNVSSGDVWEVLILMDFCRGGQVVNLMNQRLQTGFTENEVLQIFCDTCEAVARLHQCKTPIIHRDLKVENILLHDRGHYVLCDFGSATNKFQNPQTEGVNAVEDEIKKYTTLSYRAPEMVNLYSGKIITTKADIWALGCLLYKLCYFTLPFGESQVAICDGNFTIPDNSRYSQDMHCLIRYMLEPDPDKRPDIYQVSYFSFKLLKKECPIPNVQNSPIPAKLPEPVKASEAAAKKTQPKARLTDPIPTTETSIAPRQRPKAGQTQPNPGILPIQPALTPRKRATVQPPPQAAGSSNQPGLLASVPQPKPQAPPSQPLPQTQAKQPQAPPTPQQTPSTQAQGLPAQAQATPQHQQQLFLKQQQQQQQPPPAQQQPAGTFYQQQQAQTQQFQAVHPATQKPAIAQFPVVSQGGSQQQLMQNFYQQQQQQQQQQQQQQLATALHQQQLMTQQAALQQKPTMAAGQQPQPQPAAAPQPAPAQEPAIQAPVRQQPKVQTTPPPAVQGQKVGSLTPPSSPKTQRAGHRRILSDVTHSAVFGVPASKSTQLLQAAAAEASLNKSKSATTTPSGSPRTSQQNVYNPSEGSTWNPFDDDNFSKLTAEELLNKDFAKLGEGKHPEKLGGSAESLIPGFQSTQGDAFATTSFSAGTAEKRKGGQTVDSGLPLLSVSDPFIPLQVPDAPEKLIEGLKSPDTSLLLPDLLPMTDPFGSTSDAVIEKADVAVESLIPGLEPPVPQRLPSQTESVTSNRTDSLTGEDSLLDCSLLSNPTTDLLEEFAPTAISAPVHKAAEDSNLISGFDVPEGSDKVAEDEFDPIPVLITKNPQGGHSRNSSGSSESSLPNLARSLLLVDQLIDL

CC(=O)N1CCC(c2ccc(C(=O)NC(=N)N)cc2C(F)(F)F)CC1 [BI 9627]
inactive: residual activity [1] 100% | residual activity [2] 100% | residual activity [3] 97% | residual activity [4] 100% | residual activity [5] 100% | residual activity [6] 100% | residual activity [7] 87% | residual activity [8] 100% | residual activity [9] 98% | residual activity [10] 83% | residual activity [11] 99% | residual activity [12] 100% | residual activity [13] 100% | residual activity [14] 100% | residual activity [15] 100% | residual activity [16] 95% | residual activity [17] 100% | residual activity [18] 100% | residual activity [19] 73% | residual activity [20] 90% | residual activity [21] 100% | residual activity [22] 100% | residual activity [23] 96% | residual activity [24] 100% | residual activity [25] 100% | residual activity [26] 100% | residual activity [27] 100% | residual activity [28] 100% | residual activity [29] 80% | residual activity [30] 100% | residual activity [31] 100% | residual activity [32] 100% | residual activity [33] 100% | residual activity [34] 100% | residual activity [35] 100% | residual activity [36] 100% | inhibition [37] 6.29%

CC(=O)N1CCC(c2ccc(C(=O)NC3=NCCN3)cc2C(F)(F)F)CC1 [BI 0054]
inactive: residual activity [1] 100% | residual activity [2] 100% | residual activity [3] 100% | residual activity [4] 94% | residual activity [5] 88% | residual activity [6] 88% | residual activity [7] 100% | residual activity [8] 95% | residual activity [9] 100% | residual activity [10] 100% | residual activity [11] 100% | residual activity [12] 100% | residual activity [13] 89% | residual activity [14] 76% | residual activity [15] 100% | residual activity [16] 92% | residual activity [17] 100% | residual activity [18] 97% | residual activity [19] 71% | residual activity [20] 100% | residual activity [21] 100% | residual activity [22] 100% | residual activity [23] 85% | residual activity [24] 100% | residual activity [25] 100% | residual activity [26] 95% | residual activity [27] 94% | residual activity [28] 91% | residual activity [29] 100% | residual activity [30] 100% | residual activity [31] 97% | residual activity [32] 100% | residual activity [33] 100% | residual activity [34] 100% | residual activity [35] 98% | residual activity [36] 100% | inhibition [37] 1.01%

Reference: ChEMBL document CHEMBL4507279, “Data for DCP probe BI-9627” (2021)
